Where “and” joins values, the source holds several entries; their conditions need not be identical. Identical values can stand only once. Like-named read-outs stand apart in the source and are kept apart here. One block for each molecule: values may come before it.
What was measured:
Format in all cases: cell-based
MIA PaCa-2 cells = assay: 2D cell viability assay (alamarBlue), MIA PaCa-2; settings: MIA PaCa-2, 72 h
MDA-MB-231 cells [1] = assay: 2D cell viability assay (alamarBlue), MDA-MB-231; settings: MDA-MB-231, 72 h
HEK-293 EBNA cells = assay: 2D cell viability assay (alamarBlue), HEK-293 EBNA; settings: 72 h
[2] = tested on: pERK/ERK in MIA PaCa-2 cells; assay: Western blot of MAPK signaling output (pERK/ERK); settings: for potency relative to Flu-M in MAPK-signaling (pERK) inhibition: MIA PaCa-2; for normalized pERK/ERK ratio %: MIA PaCa-2 + EGF
[3] = tested on: NCI-H358 (KRAS-G12C) 3D spheroids; assay: 3D spheroid formation assay (alamarBlue), NCI-H358
Method: (§1) 3D spheroid formation assays were performed in 96-well low-attachment, suspension culture plates (cat. no. 655185, Cellstar, Greiner Bio-One) under serum free conditions. About 1000 cells per well were seeded in 50 μL RPMI medium (cat. no. 52400–025, Gibco, ThermoFisher Scientific) containing 0.5% (v/v) MethoCult (cat. no. SF H4636, Stemcell technologies), 1X B27 (cat. no. 17504044, Gibco, ThermoFisher Scientific), 25 ng/mL EGF (cat. no. E9644, Sigma-Aldrich) and 25 ng/ mL FGF (cat. no. RP-8628, ThermoFisher Scientific). Cells were cultured for 3 days and then treated with compounds or vehicle control (DMSO 0.1% (v/v) in growth medium) for another 3 days. The cells were supplemented with fresh growth medium on the third day together with the drug treatment. Spheroid formation efficiency was analyzed by alamarBlue assay reagent (cat. no. DAL1100, ThermoFisher Scientific).
(§2) A 10% (v/v) final volume of alamarBlue reagent was added to each well of the plate and incubated for 4 h at 37°C. Then the fluorescence intensity (λexcitation 560 ± 5 nm and λemission 590 ± 5 nm) was measured using the FLUOstar OPTIMA plate reader (BMG Labtech, Germany).
(§3) (A) Heatmap of ATARiS gene sensitivity scores of two KRAS dependent cell lines (NCI-H358 and MDA-MB-231) and a BRAF dependent cell line (A375). Negative values (shaded red) indicate sensitivity of the cell line proliferation to the knockdown of shown genes, whereas positive scores (shaded blue) indicate insensitivity. (B) IC50 values for indicated compounds in Ras pathway mutant cell lines NCI-H358, MDA-MB231 and A375 grown as 3D spheroids under serum free conditions. […] Statistical comparisons were done using the average values across all three cell lines. […] Positive scores indicate synergistic drug interactions whereas negative scores would denote antagonistic drug interactions. A score of zero would indicate no antagonistic or synergistic effect. (D) Flow cytometric analysis of apoptosis in MDA-MB-231 cells. […] Benzethonium chloride and DMSO treated cells were used as positive and negative controls, respectively, for setting the gates. Percentage of total apoptotic cells (early and late stage) from two biological repeats (mean ± SD) is presented. Statistical analysis was performed using Fisher’s exact test comparing the total number of viable and apoptotic cells from two biological repeats. (E) Effect of inhibitors on cellular apoptosis studied using Caspase-3/7Glo assay. […] The caspase-3/7 activity was measured as a luminescence read-out and normalized to the vehicle control, 0.05% (v/v) DMSO. […] GAPDH detection was used as loading control.

[4] = tested on: A375 (BRAF-V600E) 3D spheroids; assay: 3D spheroid formation assay (alamarBlue), A375
Method: as §1, §2, §3

[5] = tested on: MDA-MB-231 (KRAS-G13D) 3D spheroids; assay: 3D spheroid formation assay (alamarBlue), MDA-MB-231
Method: as §1, §2, §3

[6] = tested on: K-RasG12V (Rluc8-/GFP2-tagged) in HEK-293 EBNA cells; assay: K-RasG12V nanoclustering-BRET assay; settings: for K-RasG12V BRET: compounds 20 μM, FTI-277 1 μM, OphA 2.5 μM, 24 h
[7] = tested on: H-RasG12V (Rluc8-/GFP2-tagged) in HEK-293 EBNA cells; assay: H-RasG12V nanoclustering-BRET assay; settings: for H-RasG12V BRET: compounds 20 μM, FTI-277 1 μM, OphA 2.5 μM, 24 h
MDA-MB-231 cells [8] = assay: Flow cytometry-based apoptosis assay (Annexin V-FITC / 7-AAD); settings: DT-061 10 μM, calmidazolium 5 μM or combination, 24 h
Method: MDA-MB-231 cells were grown for 24 h in complete RPMI medium. The next day the cells were treated with inhibitors for 24 h. […] The cells were labelled using the Annexin V-FITC / 7-AAD apoptosis-detection kit (Beckman-Coulter, cat. no. B60224-AB) according to the manufacturer’s instruction.
as §3, with “Negative” for “(A) Heatmap of ATARiS gene sensitivity scores of two KRAS dependent cell lines (NCI-H358 and MDA-MB-231) and a BRAF dependent cell line (A375). Negative”

[9] = 2 h, trametinib 1 μM, AMG-510 1 μM, calmidazolium 20 μM, DT-061 20 μM, combination each 10 μM, fluphenazine mustard 20 μM, replicates N1-N3
[10] = Homo sapiens, A-375, 72 h, A375 3D spheroids, serum free, 3 days treatment, replicates N1, N2
[11] = Homo sapiens, A-375, A375 3D spheroids, Mean, n = 2
[12] = A/D plasmid ratio 4/1, individual replicates N1.1-N3.4
[13] = A/D plasmid ratio 4/1, individual replicates N1.1-N2.4
[14] = early and late stage, replicates N1, N2
[15] = K-RasG12V nanoclustering-BRET dose response (0.1–80 μM; OphA 0.3–20 μM), replicates
[16] = K-RasG12V nanoclustering-BRET, mean
[17] = Homo sapiens, NCI-H358, NCI-H358 3D spheroids, Mean, n = 2, read-out: IC50 values
[18] = NCI-H358 3D spheroids, serum free, 3 days treatment, replicates N1, N2, read-out: IC50 values
[19] = H-RasG12V nanoclustering-BRET dose response (0.1–80 μM; OphA 0.3–20 μM), replicates
[20] = H-RasG12V nanoclustering-BRET, mean
[21] = A375 3D spheroids, serum free, 3 days treatment, replicates N1, N2
[22] = Homo sapiens, MDA-MB-231, MDA-MB-231 3D spheroids, Mean, n = 2, read-out: IC50 values
[23] = MDA-MB-231 3D spheroids, serum free, 3 days treatment, replicates N1, N2, read-out: IC50 values

Structure (SMILES): C=CC(=O)N1CCN(c2nc(=O)n(-c3c(C)ccnc3C(C)C)c3nc(-c4c(O)cccc4F)c(F)cc23)[C@@H](C)C1 [AMG-510]
2D monolayer DSS3 (MIA PaCa-2 cells; Mean): 64.97
2D monolayer DSS3 (MIA PaCa-2 cells; replicates N1-N3): 62.6 and 65 and 67.3
2D monolayer DSS3 (MDA-MB-231 cells [1]; Mean): 4.2
2D monolayer DSS3 (MDA-MB-231 cells [1]; replicates N1-N3): 1.7 and 3 and 7.9
2D monolayer DSS3 (HEK-293 EBNA cells; Mean): 15.93
2D monolayer DSS3 (HEK-293 EBNA cells; replicates N1-N3): 22.8 and 12.8 and 12.2
potency relative to Flu-M in MAPK-signaling (pERK) inhibition [2]: at least 20 times
normalized pERK/ERK ratio % [2, 9]: 29.0898% and 30.5706% and 27.2049%
normalized pERK/ERK ratio % ([2]; same treatments, mean): 28.96%

Structure (SMILES): C=CC(=O)N1CCN(c2ncnc3c(F)c(-c4c(O)cccc4F)c(Cl)cc23)CC1 [ARS-1620]
IC50 ([3]; Homo sapiens, NCI-H358, 72 h, read-out: IC50 values, NCI-H358 3D spheroids, serum free, 3 days treatment, replicates N1, N2): 600 nM
IC50 ([3]; Homo sapiens, NCI-H358, read-out: IC50 values, NCI-H358 3D spheroids, Mean, n = 2): 460 nM
IC50 ([3]; read-out: IC50 values, NCI-H358 3D spheroids, serum free, 3 days treatment, replicates N1, N2): 320 nM
IC50 [4, 10]: > 40000 nM
IC50 [4, 11]: > 40000 nM
IC50 ([5]; Homo sapiens, MDA-MB-231, 72 h, read-out: IC50 values): > 40000 nM
IC50 ([5]; Homo sapiens, MDA-MB-231, read-out: IC50 values): > 40000 nM

Structure (SMILES): COC(=O)[C@H](CCSC)NC(=O)c1ccc(NC[C@@H](N)CS)cc1-c1ccccc1 [FTI-277]
K-RasG12V BRET [6, 12]: 72.2368 and 88.8749 and 88.6228 and 90.7219 and 73.1065 and 73.006 and 71.9005 and 74.3032 and 75.1082 and 75.0152 and 73.992 and 87.4754
K-RasG12V BRET ([6]; mean): 78.7
H-RasG12V BRET [7, 13]: 55.9675 and 54.6788 and 57.991 and 55.5016 and 58.8518 and 57.6476 and 60.7427 and 58.4164
H-RasG12V BRET ([7]; mean): 57.47

Structure (SMILES): CC(C)(C)CC(C)(C)c1ccc(OCCOCC[N+](C)(C)Cc2ccccc2)cc1 [benzethonium Cl, Benzethonium chloride]
apoptotic cells (%) (MDA-MB-231 cells [8]; [14]): 93.0493% and 96.0998%
apoptotic cells (%) (MDA-MB-231 cells [8]; mean): 94.57%

IC50 ([3]; Homo sapiens, NCI-H358, 72 h, NCI-H358 3D spheroids, serum free, 3 days treatment, replicates N1, N2, read-out: IC50 values): 1300 nM
IC50 [3, 17]: 1300 nM
IC50 [3, 18]: 1290 nM
IC50 [4, 21]: 1510 nM
IC50 [4, 10]: 1100 nM
IC50 [4, 11]: 1310 nM
IC50 [5, 22]: 1370 nM
IC50 [5, 23]: 830 nM and 1900 nM
Structure (SMILES): Clc1ccc(C(c2ccc(Cl)cc2)n2cc[n+](CC(OCc3ccc(Cl)cc3Cl)c3ccc(Cl)cc3Cl)c2)cc1 (stereo not shown) [calmidazolium]
DSS3 BRET score [6, 15]: 7.4 and 5.3 and 6.1
DSS3 BRET score [6, 16]: 6.27
K-RasG12V BRET [6, 12]: 56.1219 and 37.0972 and 36.7653 and 36.0615 and 56.3093 and 55.7392 and 55.8068 and 41.7975 and 44.4475 and 43.3047 and 43.8108 and 37.7034
K-RasG12V BRET ([6]; mean): 45.41
DSS3 BRET score [7, 19]: 4.1 and 3.4
DSS3 BRET score [7, 20]: 3.75
H-RasG12V BRET [7, 13]: 65.4602 and 65.6531 and 66.0593 and 64.447 and 71.623 and 67.855 and 69.3028 and 69.9269
H-RasG12V BRET ([7]; mean): 67.54
apoptotic cells (%) (MDA-MB-231 cells [8]; [14]): 46.8015% and 19.4293%
apoptotic cells (%) (MDA-MB-231 cells [8]; mean): 33.12%
normalized pERK/ERK ratio % ([2]; 2 h, trametinib 1 μM, AMG-510 1 μM, calmidazolium 20 μM, DT-061 20 μM, combination each 10 μM, fluphenazine mustard 20 μM, replicates N1-N3, listed as camidazolium): 79.2728% and 51.9352% and 71.8958%

Structure (SMILES): OCCN1CCN(CCCN2c3ccccc3Sc3ccc(C(F)(F)F)cc32)CC1 [fluphenazine]
effect on the RasG12V-BRET signals (in words) ([6]; K-RasG12V and H-RasG12V biosensors): Neither the PP2A activator DT-061, nor Flu had an effect
DSS3 BRET score [6, 15]: 0
DSS3 BRET score [6, 16]: 0
K-RasG12V BRET [6, 12]: 116.984 and 104.752 and 101.237 and 99.6761 and 117.221 and 114.254 and 111.203 and 106.486 and 102.332 and 104.758 and 105.192 and 105.738
K-RasG12V BRET ([6]; mean): 107.49
DSS3 BRET score [7, 19]: 0
DSS3 BRET score [7, 20]: 0
H-RasG12V BRET [7, 13]: 118.298 and 116.824 and 118.266 and 116.921 and 102.254 and 101.937 and 104.771 and 99.5349
H-RasG12V BRET ([7]; mean): 109.85
2D monolayer DSS3 (MIA PaCa-2 cells; Mean): 46.37
2D monolayer DSS3 (MIA PaCa-2 cells; replicates N1-N3): 33.6 and 46.1 and 59.4
2D monolayer DSS3 (MDA-MB-231 cells [1]; Mean): 28.4
2D monolayer DSS3 (MDA-MB-231 cells [1]; replicates N1-N3): 26.6 and 29.8 and 28.8
2D monolayer DSS3 (HEK-293 EBNA cells; Mean): 9.5
2D monolayer DSS3 (HEK-293 EBNA cells; replicates N1-N3): 9.9 and 9.2 and 9.4

Structure (SMILES): CC(C)=C[C@H]1C[C@H](C)[C@]2(CC[C@]3(C)C[C@H]4[C@H](C(=O)C[C@@]4(C)O)/C(C=O)=C\C[C@H]32)O1 [ophiobolin A]
DSS3 BRET score [6, 15]: 21.8 and 20.9
DSS3 BRET score [6, 16]: 21.35
K-RasG12V BRET ([6]; mean): 75.39
DSS3 BRET score [7, 19]: 7.5 and 2.2
DSS3 BRET score [7, 20]: 4.85
H-RasG12V BRET ([7]; mean): 87.26

Structure (SMILES): CC(=O)Nc1cccc(-n2c(=O)n(C3CC3)c(=O)c3c(Nc4ccc(I)cc4F)n(C)c(=O)c(C)c32)c1 [trametinib]
potency relative to Flu-M in MAPK-signaling (pERK) inhibition [2]: at least 20 times
normalized pERK/ERK ratio % [2, 9]: 32.0097% and 10.8438% and 18.176%
normalized pERK/ERK ratio % ([2]; same treatments, mean): 20.34%

IC50 [3, 17]: 690 nM
IC50 [3, 18]: 390 nM and 980 nM
IC50 [4, 21]: 360 nM
IC50 [4, 10]: 250 nM
IC50 [4, 11]: 310 nM
IC50 ([5]; Homo sapiens, MDA-MB-231, 72 h, MDA-MB-231 3D spheroids, serum free, 3 days treatment, replicates N1, N2, read-out: IC50 values): 430 nM
IC50 [5, 22]: 590 nM
IC50 [5, 23]: 740 nM
Structure (SMILES): CN1CCN(CCCN2c3ccccc3Sc3ccc(C(F)(F)F)cc32)CC1 [triflouperazine, trifluoperazine]

Source: article PMC9135253, “Potential of phenothiazines to synergistically block calmodulin and reactivate PP2A in cancer cells” (PLoS ONE, 2022)
